According to patent US20260083865A1, “PROSTATE SPECIFIC MEMBRANE ANTIGEN (PSMA) LIGANDS AND USE THEREOF” (priority 2022, published 2026):
Numbered stars: 1 amine (or outer) side, 2 acyl side, 3 side chain; on linkers, the order of the positions; unused ones are H or OH. Bridge positions count the residues as written; N and C are the ends. Square brackets hold non-standard residues; d marks the D form. Peptide text beside a SMILES is read from it. * marks the point of attachment. DOTA = O=C(O)CN1CCN(CC(=O)O)CCN(CC(=O)*)CCN(CC(=O)O)CC1; Phe(4-CH2COOH) = N[C@@H](Cc1ccc(CC(=O)O)cc1)C(=O)O; Phe(4-Cl) = N[C@@H](Cc1ccc(Cl)cc1)C(=O)O; tBuAla = CC(C)(C)C[C@H](N)C(=O)O; X1 = O=C(CC1CCN([*:1])CC1)[*:2]; Tle = CC(C)(C)[C@H](N)C(=O)O; Nle = CCCC[C@H](N)C(=O)O; Aib = CC(C)(N)C(=O)O

How the values were obtained:
[1] = target: T1, PSMA-expressing C4-2 cells (Homo sapiens, UniProt Q04609); test: FACS binding assay (competition with 50 nM PSM-0183); conditions: FACS binding, C4-2 cells, category; read-out: pIC50 [C4-2] CAT (converted)
T1 construct: PSMA-expressing C4-2 cells (ATCC, Cat. No. CRL-3314) were cultured in RPMI-1640; host or cells: C4-2 cells
Outline: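 Competition format: fluorescent tracer PSM-0183 (50 nM) displaced from PSMA on C4-2 cells by a test compound titration over 1 h at 4 °C. Bound tracer was quantified as flow-cytometric AF488 median fluorescence after washing. Four-parameter logistic fits of MFI data gave IC50 and pIC50.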

[2] = target: T2, Fc-fusion protein of human PSMA (hPSMA-Fc) (Homo sapiens, UniProt Q04609); test: Surface plasmon resonance assay (Biacore T200, single cycle kinetic); type: binding; conditions: PSMA SPR assay, category; read-out: pKD CAT (converted)
T2 construct: purchased Acro Biosystems PSA-H5264
Outline: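 KD, expressed as pKD, came from 1:1 Langmuir fits of reference- and buffer-blank-subtracted SPR data. The runs were single-cycle kinetics at 25° C in HBST/0.1% DMSO over human PSMA-Fc, captured to ~1000 RU on a peptide-coated CM5 surface and regenerated with 10 mM glycine pH 1.5.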

T2 sequence (Q04609 44-750 limits assumed): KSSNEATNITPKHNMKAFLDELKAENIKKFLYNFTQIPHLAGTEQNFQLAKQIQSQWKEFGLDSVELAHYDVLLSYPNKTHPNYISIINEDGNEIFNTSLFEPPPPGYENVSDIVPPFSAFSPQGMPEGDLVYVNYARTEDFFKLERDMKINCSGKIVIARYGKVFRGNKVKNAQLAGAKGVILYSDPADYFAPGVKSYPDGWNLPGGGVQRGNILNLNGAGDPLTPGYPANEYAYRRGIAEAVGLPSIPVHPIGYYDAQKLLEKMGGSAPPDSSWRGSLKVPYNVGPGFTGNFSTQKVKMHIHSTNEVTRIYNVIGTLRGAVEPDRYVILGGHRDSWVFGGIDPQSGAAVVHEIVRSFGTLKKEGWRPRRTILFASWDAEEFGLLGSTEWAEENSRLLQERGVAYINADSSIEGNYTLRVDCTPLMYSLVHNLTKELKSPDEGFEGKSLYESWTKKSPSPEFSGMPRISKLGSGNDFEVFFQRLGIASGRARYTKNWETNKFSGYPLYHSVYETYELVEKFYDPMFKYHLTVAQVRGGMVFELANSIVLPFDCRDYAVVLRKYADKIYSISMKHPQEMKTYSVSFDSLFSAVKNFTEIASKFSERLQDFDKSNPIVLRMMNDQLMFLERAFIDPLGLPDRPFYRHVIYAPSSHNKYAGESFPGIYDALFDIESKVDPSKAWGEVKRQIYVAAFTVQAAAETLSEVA
T1 sequence (Q04609 whole entry): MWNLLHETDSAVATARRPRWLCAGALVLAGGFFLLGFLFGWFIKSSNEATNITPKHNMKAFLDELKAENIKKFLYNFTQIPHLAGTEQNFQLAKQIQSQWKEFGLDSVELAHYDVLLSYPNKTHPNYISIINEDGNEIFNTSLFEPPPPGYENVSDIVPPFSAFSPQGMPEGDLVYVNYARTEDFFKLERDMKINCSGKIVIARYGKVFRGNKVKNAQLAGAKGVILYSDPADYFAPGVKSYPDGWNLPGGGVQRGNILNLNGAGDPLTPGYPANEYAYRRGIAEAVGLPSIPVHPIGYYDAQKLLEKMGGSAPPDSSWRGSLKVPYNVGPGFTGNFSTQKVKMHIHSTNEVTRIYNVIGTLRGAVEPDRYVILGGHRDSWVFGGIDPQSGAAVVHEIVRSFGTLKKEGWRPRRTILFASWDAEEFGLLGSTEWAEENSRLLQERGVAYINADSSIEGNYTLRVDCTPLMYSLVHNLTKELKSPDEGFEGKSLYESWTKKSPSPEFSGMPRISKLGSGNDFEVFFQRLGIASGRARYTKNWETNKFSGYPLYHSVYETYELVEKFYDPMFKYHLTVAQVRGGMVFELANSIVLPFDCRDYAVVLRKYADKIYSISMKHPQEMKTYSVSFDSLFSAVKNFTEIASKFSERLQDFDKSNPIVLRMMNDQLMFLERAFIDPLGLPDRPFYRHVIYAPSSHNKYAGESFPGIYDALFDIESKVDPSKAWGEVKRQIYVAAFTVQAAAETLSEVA

| IC50 [1] [nM] | Kd [2] [nM] | Structure (SMILES) |
| --- | --- | --- |
| < 200 | 12.6 to 126 | CC(=O)N[C@H](C(=O)NC(C)(C)C(=O)N[C@@H](Cc1ccccc1)C(=O)N[C@H]1CSSC[C@@H](C(=O)N[C@@H](CC(C)(C)C)C(N)=O)NC(=O)[C@H](CC(N)=O)NC(=O)C(C)(C)NC(=O)[C@H](CCCNC(=N)N)NC(=O)[C@H](CCCCN)NC1=O)[C@@H](C)O [PSM-0560, Ac-Thr-Aib-Phe-[Cys-Lys-Arg-Aib-Asn-Cys]-Npg-NH2] (Ac-T[Aib]FCKR[Aib]NC[tBuAla]-NH2; disulfide 4-9) |
| 200 to 1260 | 126 to 501 | CCCC[C@H](NC(=O)[C@@H]1CSSC[C@H](NC(=O)[C@H](Cc2ccccc2)NC(=O)[C@H](C)NC(=O)[C@@H](NC(C)=O)[C@@H](C)O)C(=O)N[C@@H](CCCCN)C(=O)N[C@@H](CCCNC(=N)N)C(=O)N[C@@H](C)C(=O)N[C@@H](CC(N)=O)C(=O)N1)C(=O)N[C@H](C(=O)N[C@@H](C)C(N)=O)[C@@H](C)O [PSM-0562, Ac-Thr-Als-Phe-[Cys-Lys-Arg-Ala-Asn-Cys]-Nle-Thr-Ala-NH2] (Ac-TAFCKRANC[Nle]TA-NH2; disulfide 4-9) |
| < 200 | 12.6 to 126 | CC(=O)N[C@H](C(=O)NC(C)(C)C(=O)N[C@@H](Cc1ccccc1)C(=O)N[C@H]1CSSC[C@@H](C(=O)N[C@H](C(=O)N[C@H](C(N)=O)[C@@H](C)O)C(C)(C)C)NC(=O)[C@H](CCC(=O)O)NC(=O)C(C)(C)NC(=O)[C@H](CCCNC(=N)N)NC(=O)[C@H](CCCCN)NC1=O)[C@@H](C)O [PSM-0563, Ac-Thr-Aib-Phe-[Cys-Lys-Arg-Aib-Glu-Cys]-Tle-Thr-NH2] (Ac-T[Aib]FCKR[Aib]EC[Tle]T-NH2; disulfide 4-9) |
| < 200 | < 12.6 | CC(=O)N[C@H](C(=O)NC(C)(C)C(=O)N[C@@H](Cc1ccccc1)C(=O)N[C@H]1CSSC[C@@H](C(=O)N[C@H](C(=O)N[C@H](C(=O)N[C@@H](CC(=O)O)C(N)=O)[C@@H](C)O)C(C)(C)C)NC(=O)[C@H](CC(N)=O)NC(=O)[C@H](C)NC(=O)[C@H](CCCNC(=N)N)NC(=O)[C@H](CCCCN)NC1=O)[C@@H](C)O [PSM-0565, Ac-Thr-Aib-Phe-[Cys-Lys-Arg-Ala-Asn-Cys]-Tle-Thr-Asp-NH2] (Ac-T[Aib]FCKRANC[Tle]TD-NH2; disulfide 4-9) |

The next lines start with the compound.

| Structure (SMILES) | IC50 [1] [nM] | Kd [2] [nM] |
| --- | --- | --- |
| CC(=O)NC(C)(C)C(=O)N[C@@H](Cc1ccc(Cl)cc1)C(=O)N[C@H]1CSSC[C@@H](C(=O)N[C@H](C(=O)N[C@H](C(N)=O)[C@@H](C)O)C(C)(C)C)NC(=O)[C@H](CC(N)=O)NC(=O)C(C)(C)NC(=O)[C@H](CCCNC(=N)N)NC(=O)[C@H](CCCCN)NC1=O [PSM-0559, Ac-Aib-Pcf-[Cys-Lys-Arg-Aib-Asn-Cys]-Tle-Thr-NH2] (Ac-[Aib][Phe(4-Cl)]CKR[Aib]NC[Tle]T-NH2; disulfide 3-8) | < 200 | < 12.6 |
| CCCC[C@H](NC(=O)[C@@H]1CSSC[C@H](NC(=O)[C@H](Cc2ccccc2)NC(=O)[C@H](C)NC(=O)[C@@H](NC(C)=O)[C@@H](C)O)C(=O)N[C@@H](CCCCN)C(=O)N2CCC[C@H]2C(=O)N[C@@H](C)C(=O)N[C@@H](CC(N)=O)C(=O)N1)C(=O)N[C@H](C(=O)N[C@@H](CC(=O)O)C(N)=O)[C@@H](C)O [PSM-0564, Ac-Thr-Als-Phe-[Cys-Lys-Pro-Ala-Asn-Cys]-Nle-Thr-Asp-NH2] (Ac-TAFCKPANC[Nle]TD-NH2; disulfide 4-9) | > 3160 | > 501 |
| C[C@@H](O)[C@H](NC(=O)[C@@H](NC(=O)[C@@H]1CSSC[C@H](NC(=O)[C@H](Cc2ccc(CC(=O)O)cc2)NC(=O)C(C)(C)NC(=O)[C@@H](NC(=O)CC2CCN(C(=O)CN3CCN(CC(=O)O)CCN(CC(=O)O)CCN(CC(=O)O)CC3)CC2)[C@@H](C)O)C(=O)N[C@@H](CCCCN)C(=O)N[C@@H](CCCNC(=N)N)C(=O)NC(C)(C)C(=O)N[C@@H](CC(N)=O)C(=O)N1)C(C)(C)C)C(N)=O [PSM-0566, DOTA-Cmp-Thr-Aib-Fac-[Cys-Lys-Arg-Aib-Asn-Cys]-Tle-Thr-NH2] ({DOTA}-[X1]T[Aib][Phe(4-CH2COOH)]CKR[Aib]NC[Tle]T-NH2; disulfide 5-10) | > 3160 | > 501 |
